The values below come from ChEMBL document CHEMBL4619828, “Discovery of Potent and Orally Bioavailable Small Molecule Antagonists of Toll-like Receptors 7/8/9 (TLR7/8/9)” (ACS Med Chem Lett, 2020).

The structures appear in SMILES notation.

The nature of data set [1]: Terminal half life in mouse at 3 mg/kg, iv. It counts as ADME, organism-based. As to conditions: in vivo, read-out: beta t1/2 (converted).
Another data set deals with T1, Toll-like receptor 3 (Homo sapiens, UniProt O15455).
T1 sequence (O15455 whole entry): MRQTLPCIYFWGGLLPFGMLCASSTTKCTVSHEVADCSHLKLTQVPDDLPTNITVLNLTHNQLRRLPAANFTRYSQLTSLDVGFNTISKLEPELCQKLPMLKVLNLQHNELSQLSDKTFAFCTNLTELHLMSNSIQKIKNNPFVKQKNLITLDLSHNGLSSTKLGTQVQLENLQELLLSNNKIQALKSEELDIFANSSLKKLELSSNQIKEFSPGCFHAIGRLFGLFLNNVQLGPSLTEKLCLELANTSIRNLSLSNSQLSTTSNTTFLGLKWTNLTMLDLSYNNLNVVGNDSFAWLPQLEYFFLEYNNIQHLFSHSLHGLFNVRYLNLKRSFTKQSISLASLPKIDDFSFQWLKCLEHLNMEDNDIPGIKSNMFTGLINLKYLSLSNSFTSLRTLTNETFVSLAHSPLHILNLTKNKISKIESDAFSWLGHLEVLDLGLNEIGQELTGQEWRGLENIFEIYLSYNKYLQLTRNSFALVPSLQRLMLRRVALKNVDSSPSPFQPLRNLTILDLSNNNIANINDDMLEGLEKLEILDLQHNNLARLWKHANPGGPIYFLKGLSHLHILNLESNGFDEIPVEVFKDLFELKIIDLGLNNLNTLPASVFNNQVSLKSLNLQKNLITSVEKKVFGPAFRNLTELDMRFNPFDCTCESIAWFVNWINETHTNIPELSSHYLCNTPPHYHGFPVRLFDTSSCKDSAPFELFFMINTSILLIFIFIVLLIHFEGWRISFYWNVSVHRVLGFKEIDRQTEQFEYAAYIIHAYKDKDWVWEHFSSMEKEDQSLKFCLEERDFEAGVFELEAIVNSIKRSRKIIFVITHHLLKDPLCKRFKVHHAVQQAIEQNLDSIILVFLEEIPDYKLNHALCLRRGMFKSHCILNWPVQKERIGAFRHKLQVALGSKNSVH
The data set is described as follows: Antagonist activity at human TLR3 overexpressed in HEK-Blue cells assessed as inhibition of Poly IC-induced NFkappaB and AP-1 activation preincubated for 30 mins followed by Poly IC stimulation measured after 22 hrs by quanti-blue SEAP assay. It counts as cell-based.

For another data set, the target named is T2, Toll-like receptor 7 (Mus musculus, UniProt P58681).
T2 sequence (P58681 whole entry): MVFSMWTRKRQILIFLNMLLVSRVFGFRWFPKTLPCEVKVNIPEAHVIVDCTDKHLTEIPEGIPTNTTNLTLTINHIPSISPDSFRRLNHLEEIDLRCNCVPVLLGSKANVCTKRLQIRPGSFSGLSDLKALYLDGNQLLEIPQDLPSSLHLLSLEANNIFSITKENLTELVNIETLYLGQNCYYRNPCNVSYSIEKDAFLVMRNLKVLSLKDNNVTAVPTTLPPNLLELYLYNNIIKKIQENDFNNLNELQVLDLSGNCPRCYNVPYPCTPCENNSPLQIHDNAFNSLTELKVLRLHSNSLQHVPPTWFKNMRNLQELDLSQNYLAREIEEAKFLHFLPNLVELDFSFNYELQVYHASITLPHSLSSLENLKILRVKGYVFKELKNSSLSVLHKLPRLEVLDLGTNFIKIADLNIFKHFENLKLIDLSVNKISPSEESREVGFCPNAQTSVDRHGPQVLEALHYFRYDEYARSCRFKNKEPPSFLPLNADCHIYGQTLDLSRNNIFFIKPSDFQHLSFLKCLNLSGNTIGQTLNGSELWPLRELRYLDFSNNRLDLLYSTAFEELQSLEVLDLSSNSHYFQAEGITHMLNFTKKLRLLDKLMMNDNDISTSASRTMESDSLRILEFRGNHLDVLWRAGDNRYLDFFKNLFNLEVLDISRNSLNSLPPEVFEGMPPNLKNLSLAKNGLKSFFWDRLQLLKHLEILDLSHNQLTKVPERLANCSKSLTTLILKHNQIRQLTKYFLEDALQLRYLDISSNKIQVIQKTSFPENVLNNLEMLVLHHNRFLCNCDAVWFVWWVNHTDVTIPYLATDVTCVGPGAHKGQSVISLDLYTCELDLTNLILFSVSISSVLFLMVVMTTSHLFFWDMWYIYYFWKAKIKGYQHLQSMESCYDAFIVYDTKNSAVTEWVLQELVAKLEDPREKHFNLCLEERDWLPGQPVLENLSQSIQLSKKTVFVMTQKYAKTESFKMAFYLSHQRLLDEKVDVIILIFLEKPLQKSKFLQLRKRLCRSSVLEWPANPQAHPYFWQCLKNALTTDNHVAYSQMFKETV
Description: Antagonist activity at TLR7 in mouse whole blood cells assessed as inhibition of gardiquimod induced IL-6 production by ELISA. Format: cell-based. A general note: In an ELISA, binding on a coated surface is turned into a signal by an enzyme label.

With `CNCCN1CCC(c2ccc3[nH]c(-c4ccc(OC)c(OC)c4)c(C(C)C)c3c2)CC1`, the half-life in data set [1] was 32 h. The IC50 amounted to 5.44 µM at Toll-like receptor 3 and 0.043 µM on Toll-like receptor 7.

Usually IC50 stands for the concentration needed to halve the response being measured.
